Test results: patent publication US11530210B2, “Substituted heteroaromatic pyrazolo-pyridines and their use as GLUN2B receptor modulators” (JANSSEN PHARMACEUTICA NV, priority 2019, dated 2022)
pIC50: −log10 of the molar value. Where a name gives a salt, the structure may show the parent alone.

Molecular target: T1, human GluN1/GluN2B NMDA receptors (Homo sapiens, UniProt Q13224)
T1 construct: expressed in transfected cells
Test: Calcium flux (FLIPR) assay on cloned human NR1/GluN2B ion channels expressed in mammalian cells (standard and HTS variants)
Type: cell-based
Details: cells expressing human GluN1/GluN2B, glutamate and glycine co-agonists
Procedure, shortened: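 Tet-On-induced stable cell line loaded with Calcium 5 dye; compounds applied 5 min (agonist check), then glutamate at ~EC40 plus 10 μM glycine for 5 min. Buffer pH 7.4 with 0.5 mM MgCl2 in dye loading (standard) or 1.5 mM (HTS). FLIPR fluorescence normalized to control wells; (+)MK-801 as antagonist control.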

T1 sequence (Q13224 27-1484, other chains not shown): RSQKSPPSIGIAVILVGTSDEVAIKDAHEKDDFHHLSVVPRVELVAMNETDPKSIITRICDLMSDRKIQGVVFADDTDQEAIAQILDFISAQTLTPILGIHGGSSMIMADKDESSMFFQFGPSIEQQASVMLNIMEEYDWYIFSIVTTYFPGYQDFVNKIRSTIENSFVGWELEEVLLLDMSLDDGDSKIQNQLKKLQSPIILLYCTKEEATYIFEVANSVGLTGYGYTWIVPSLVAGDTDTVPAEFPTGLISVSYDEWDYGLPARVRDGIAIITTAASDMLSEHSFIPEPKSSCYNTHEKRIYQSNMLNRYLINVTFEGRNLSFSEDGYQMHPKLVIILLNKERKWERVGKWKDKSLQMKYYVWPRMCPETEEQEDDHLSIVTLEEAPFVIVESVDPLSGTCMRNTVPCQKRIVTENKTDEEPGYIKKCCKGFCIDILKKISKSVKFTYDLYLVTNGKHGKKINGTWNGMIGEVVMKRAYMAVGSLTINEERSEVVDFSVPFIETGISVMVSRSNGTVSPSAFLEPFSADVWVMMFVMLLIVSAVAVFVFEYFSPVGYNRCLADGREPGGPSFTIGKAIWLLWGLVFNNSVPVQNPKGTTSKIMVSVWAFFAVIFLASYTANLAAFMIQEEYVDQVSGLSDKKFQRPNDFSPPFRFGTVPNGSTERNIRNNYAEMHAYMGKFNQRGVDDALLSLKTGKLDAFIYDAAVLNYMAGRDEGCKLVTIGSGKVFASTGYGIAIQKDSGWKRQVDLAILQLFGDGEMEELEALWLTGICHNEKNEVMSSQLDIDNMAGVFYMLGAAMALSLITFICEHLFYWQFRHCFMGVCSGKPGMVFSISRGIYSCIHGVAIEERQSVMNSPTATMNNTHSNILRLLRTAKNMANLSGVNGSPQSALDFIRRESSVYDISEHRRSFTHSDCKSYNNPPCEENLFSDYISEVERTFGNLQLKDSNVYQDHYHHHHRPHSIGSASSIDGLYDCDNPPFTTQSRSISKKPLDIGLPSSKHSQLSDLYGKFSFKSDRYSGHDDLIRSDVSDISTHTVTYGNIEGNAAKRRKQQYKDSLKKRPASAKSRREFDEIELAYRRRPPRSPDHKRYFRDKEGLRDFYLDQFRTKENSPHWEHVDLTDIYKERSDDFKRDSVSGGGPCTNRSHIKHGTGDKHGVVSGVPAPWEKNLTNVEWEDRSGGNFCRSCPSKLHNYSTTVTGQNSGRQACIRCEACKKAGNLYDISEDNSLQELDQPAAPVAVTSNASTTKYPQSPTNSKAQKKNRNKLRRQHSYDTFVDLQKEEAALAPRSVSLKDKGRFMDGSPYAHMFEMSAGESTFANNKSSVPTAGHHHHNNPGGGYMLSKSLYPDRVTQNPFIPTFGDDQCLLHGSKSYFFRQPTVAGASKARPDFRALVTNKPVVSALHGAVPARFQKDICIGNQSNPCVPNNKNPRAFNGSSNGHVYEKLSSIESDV

SMILES	pIC50
Cc1c(F)ccc(-c2cnc3cnn(Cc4nnc(C(F)(F)F)o4)c3c2)c1F [Example 119, 2-[[6-(2,4-Difluoro-3-methyl-phenyl)pyrazolo[4,3-b]pyridin-1-yl]methyl]-5-(trifluoromethyl)-1,3,4-oxadiazole]	6.61
FC(F)(F)c1cccc(-c2cnc3cnn(Cc4csnn4)c3c2)c1 [Example 120, 4-[[6-[3-(Trifluoromethyl)phenyl]pyrazolo[4,3-b]pyridin-1-yl]methyl]thiadiazole]	6.05
CCc1nnc(Cn2ncc3ncc(-c4ccc(F)c(C(F)F)c4)cc32)s1 [Example 125, 2-[[6-[3-(Difluoromethyl)-4-fluoro-phenyl]pyrazolo[4,3-b]pyridin-1-yl]methyl]-5-ethyl-1,3,4-thiadiazole]	6.86
CNc1nnc(Cn2ncc3ncc(-c4ccc(F)c(C(F)F)c4)cc32)s1 [Example 126, 5-((6-(3-(difluoromethyl)-4-fluorophenyl)-1H-pyrazolo[4,3-b]pyridin-1-yl)methyl)-N-methyl-1,3,4-thiadiazol-2-amine]	5.79
COc1nnc(Cn2ncc3ncc(-c4ccc(F)c(C(F)F)c4)cc32)s1 [Example 127, 2-[[6-[3-(difluoromethyl)-4-fluoro-phenyl]pyrazolo[4,3-b]pyridin-1-yl]methyl]-5-methoxy-1,3,4-thiadiazole]	6.07
CC(=O)Nc1nnc(Cn2ncc3ncc(-c4ccc(F)c(C(F)F)c4)cc32)s1 [Example 128, N-(5-((6-(3-(Difluoromethyl)-4-fluorophenyl)-1H-pyrazolo[4,3-b]pyridin-1-yl)methyl)-1,3,4-thiadiazol-2-yl)acetamide]	< 5.52
Fc1ccc(-c2cnc3cnn(Cc4nnc(C5CC5)s4)c3c2)cc1C(F)F [Example 130, 2-Cyclopropyl-5-[[6-[3-(difluoromethyl)-4-fluoro-phenyl]pyrazolo[4,3-b]pyridin-1-yl]methyl]-1,3,4-thiadiazole]	6.91
Cc1nnc(Cn2ncc3ncc(-c4ccc(Cl)c(OC(F)F)c4)cc32)s1 [Example 135, 2-[[6-[4-Chloro-3-(difluoromethoxy)phenyl]pyrazolo[4,3-b]pyridin-1-yl]methyl]-5-methyl-1,3,4-thiadiazole]	6.88
Cc1cncc(Cn2ncc3ncc(-c4cc(C)cs4)cc32)c1 [Example 138, 1-[(5-Methyl-3-pyridyl)methyl]-6-(4-methyl-2-thienyl)pyrazolo[4,3-b]pyridine]	6.80
N#Cc1cncc(Cn2ncc3ncc(-c4ccc(Cl)s4)cc32)c1 [Example 140, 5-[[6-(5-Chloro-2-thienyl)pyrazolo[4,3-b]pyridin-1-yl]methyl]pyridine-3-carbonitrile]	6.77
N#Cc1cncc(Cn2ncc3ncc(-c4ccc(C(F)F)s4)cc32)c1 [Example 142, 5-[[6-[5-(Difluoromethyl)-2-thienyl]pyrazolo[4,3-b]pyridin-1-yl]methyl]pyridine-3-carbonitrile]	6.66
Fc1ccc(Cn2ncc3ncc(-c4ccc(C(F)(F)F)s4)cc32)cn1 [Example 143, 1-((6-Fluoropyridin-3-yl)methyl)-6-(5-(trifluoromethyl)thiophen-2-yl)-1H-pyrazolo[4,3-b]pyridine]	6.88
N#Cc1cncc(Cn2ncc3ncc(-c4ccc(C(F)(F)F)s4)cc32)c1 [Example 144, 5-[[6-[5-(Trifluoromethyl)-2-thienyl]pyrazolo[4,3-b]pyridin-1-yl]methyl]pyridine-3-carbonitrile]	6.24
Fc1cncc(Cn2ncc3ncc(-c4ccc(Cl)cc4)cc32)c1 [Example 148, 6-(4-Chlorophenyl)-1-[(5-fluoro-3-pyridyl)methyl]pyrazolo[4,3-b]pyridine trifluoroacetate salt]	6.20
Fc1ccc(-c2cnc3cnn(Cc4ccccn4)c3c2)cc1 [Example 149, 6-(4-Fluorophenyl)-1-(2-pyridylmethyl)pyrazolo[4,3-b]pyridine]	5.46
COc1cncc(Cn2ncc3ncc(-c4ccc(F)cc4)cc32)c1 [Example 150, 6-(4-Fluorophenyl)-1-[(5-methoxy-3-pyridyl)methyl]pyrazolo[4,3-b]pyridine]	6.39
Fc1ccc(-c2cnc3cnn(Cc4cncc(OC(F)F)c4)c3c2)cc1 [Example 151, 1-[[5-(Difluoromethoxy)-3-pyridyl]methyl]-6-(4-fluorophenyl)pyrazolo[4,3-b]pyridine]	5.94
Fc1cccc(-c2cnc3cnn(Cc4ccccn4)c3c2)c1 [Example 152, 6-(3-Fluorophenyl)-1-(2-pyridylmethyl)pyrazolo[4,3-b]pyridine]	5.66
Fc1cncc(Cn2ncc3ncc(-c4ccccc4F)cc32)c1 [Example 153, 6-(2-Fluorophenyl)-1-[(5-fluoro-3-pyridyl)methyl]pyrazolo[4,3-b]pyridine]	6.14
COc1cccc(-c2cnc3cnn(Cc4ccccn4)c3c2)c1 [Example 154, 6-(3-Methoxyphenyl)-1-(2-pyridylmethyl)pyrazolo[4,3-b]pyridine]	5.13
COc1cccc(-c2cnc3cnn(Cc4ccc(F)nc4)c3c2)c1 [Example 155, 1-[(6-Fluoro-3-pyridyl)methyl]-6-(3-methoxyphenyl)pyrazolo[4,3-b]pyridine]	5.78
FC(F)c1cccc(-c2cnc3cnn(Cc4ccccn4)c3c2)c1 [Example 156, 6-[3-(Difluoromethyl)phenyl]-1-(2-pyridylmethyl)pyrazolo[4,3-b]pyridine]	6.13
Fc1cncc(Cn2ncc3ncc(-c4cccc(OC(F)F)c4)cc32)c1 [Example 159, 6-[3-(Difluoromethoxy)phenyl]-1-[(5-fluoro-3-pyridyl)methyl]pyrazolo[4,3-b]pyridine]	6.60

The next molecules have a higher pIC50 than those just listed; values first:

pIC50	SMILES
7.60	Fc1ccc(-c2cnc3cnn(Cc4nncs4)c3c2)cc1C(F)F [Example 121, 2-[[6-[3-(Difluoromethyl)-4-fluoro-phenyl]pyrazolo[4,3-b]pyridin-1-yl]methyl]-1,3,4-thiadiazole]
7.38	Cc1nnc(Cn2nc(F)c3ncc(-c4ccc(F)c(C(F)F)c4)cc32)s1 [Example 123, 2-[[6-[3-(Difluoromethyl)-4-fluoro-phenyl]-3-fluoro-pyrazolo[4,3-b]pyridin-1-yl]methyl]-5-methyl-1,3,4-thiadiazole]
7.18	Cc1nnc(Cn2nc(C)c3ncc(-c4ccc(F)c(C(F)F)c4)cc32)s1 [Example 124, 2-[[6-[3-(Difluoromethyl)-4-fluoro-phenyl]-3-methyl-pyrazolo[4,3-b]pyridin-1-yl]methyl]-5-methyl-1,3,4-thiadiazole]
7.77	Fc1ccc(-c2cnc3cnn(Cc4nnc(C(F)F)s4)c3c2)cc1C(F)F [Example 129, 2-(Difluoromethyl)-5-[[6-[3-(difluoromethyl)-4-fluoro-phenyl]pyrazolo[4,3-b]pyridin-1-yl]methyl]-1,3,4-thiadiazole]
7.24	Cc1nnc(Cn2ncc3ncc(-c4ccc(Cl)c(C(F)F)c4)cc32)s1 [Example 131, 2-[[6-[4-Chloro-3-(difluoromethyl)phenyl]pyrazolo[4,3-b]pyridin-1-yl]methyl]-5-methyl-1,3,4-thiadiazole]
7.48	Cc1nnc(Cn2ncc3ncc(-c4ccc(F)c(C)c4)cc32)s1 [Example 132, 2-[[6-(4-Fluoro-3-methyl-phenyl)pyrazolo[4,3-b]pyridin-1-yl]methyl]-5-methyl-1,3,4-thiadiazole]
7.14	Cc1nnc(Cn2ncc3ncc(-c4ccc(F)c(OC(F)F)c4)cc32)s1 [Example 133, 2-[[6-[3-(Difluoromethoxy)-4-fluoro-phenyl]pyrazolo[4,3-b]pyridin-1-yl]methyl]-5-methyl-1,3,4-thiadiazole]
7.77	Cc1nnc(Cn2ncc3ncc(-c4ccc(F)c(C)c4F)cc32)s1 [Example 136, 2-[[6-(2,4-Difluoro-3-methyl-phenyl)pyrazolo[4,3-b]pyridin-1-yl]methyl]-5-methyl-1,3,4-thiadiazole]
6.94	Cc1csc(-c2cnc3cnn(Cc4cccnc4)c3c2)c1 [Example 137, 6-(4-Methyl-2-thienyl)-1-(3-pyridylmethyl)pyrazolo[4,3-b]pyridine]
7.05	Cc1ccc(-c2cnc3cnn(Cc4cccnc4)c3c2)s1 [Example 139, 6-(5-Methyl-2-thienyl)-1-(3-pyridylmethyl)pyrazolo[4,3-b]pyridine]
7.21	Clc1ccsc1-c1cnc2cnn(Cc3cccnc3)c2c1 [Example 141, 6-(3-Chloro-2-thienyl)-1-(3-pyridylmethyl)pyrazolo[4,3-b]pyridine]
7.44	Cc1cccc(-c2cnc3cnn(Cc4ccc(F)nc4)c3c2)c1 [Example 145, 1-[(6-Fluoro-3-pyridyl)methyl]-6-(m-tolyl)pyrazolo[4,3-b]pyridine]
8.05	Cc1cccc(-c2cnc3cnn(Cc4cncc(F)c4)c3c2)c1 [Example 146, 1-[(5-Fluoro-3-pyridyl)methyl]-6-(m-tolyl)pyrazolo[4,3-b]pyridine]
7.32	Cc1cccc(-c2cnc3c(F)nn(Cc4cncc(F)c4)c3c2)c1 [Example 147, 3-Fluoro-1-[(5-fluoro-3-pyridyl)methyl]-6-(m-tolyl)pyrazolo[4,3-b]pyridine]
7.19	N#Cc1cncc(Cn2ncc3ncc(-c4cccc(C(F)F)c4)cc32)c1 [Example 157, 5-[[6-[3-(Difluoromethyl)phenyl]pyrazolo[4,3-b]pyridin-1-yl]methyl]pyridine-3-carbonitrile]
7.85	FC(F)c1cccc(-c2cnc3cnn(Cc4cncc(Cl)c4)c3c2)c1 [Example 158, 1-[(5-Chloro-3-pyridyl)methyl]-6-[3-(difluoromethyl)phenyl]pyrazolo[4,3-b]pyridine]
6.95	Cc1cncc(Cn2ncc3ncc(-c4cccc(C(C)(F)F)c4)cc32)c1 [Example 160, 6-[3-(1,1-Difluoroethyl)phenyl]-1-[(5-methyl-3-pyridyl)methyl]pyrazolo[4,3-b]pyridine]
